Columns and labels:
in vivo = settings: plasma
[1] = 120 minutes after administration

- concentration at 2 min (in vivo; inhaled): 5000 ng/mL
- concentration at 2 min (in vivo; po): 1000 ng/mL
- plasma level, methods of the invention compared to oral administration [1]: twice as high
SMILES: N[C@@H](Cc1ccc(O)c(O)c1)C(=O)O [L-Dopa, Levodopa]
